The test system of test [1] is MET. Nature of the test: MET phosphorylation in SHEP neuroblastoma cells. It is filed as cell-based, human. The following applies: SHEP cells. The procedure:
FIG. 7B: SHEP cells were grown with GDNF (10 ng/ml (lanes 2-4) or 5 pg/ml (lanes 5-7)) or HGF (10 ng/ml (lanes 8-9)) in the presence of PP2 (1 μM (lanes 3 and 6) and 10 μM (lanes 4 and 7)). To exclude a possible cytotoxic effect of the solvent, DMSO was added to the controls. […] The numbers below the lane indicate the fold of induction of MET tyrosine kinase. The results are representative of three independent experiments.
(§1) To detect MET activation, GFRα1- and RET/GFRα1-expressing MDCK or SHEP cells were starved overnight in MEM or RPMI 1640 with 1% FCS, respectively, and in serum-free medium for 2 h prior the induction. After 15 min incubation at 37° C. with GDNF (at indicated concentrations) or with 50 ng/ml HGF, cells were lysed as described. Cleared cell lysates were incubated with anti-MET antibodies (Santa Cruz Biotechnologies, Inc.) overnight at 4° C. Immunoprecipitates were collected with protein A-SEPHAROSE (Amersham Pharmacia Biotech), washed, separated by SDS-PAGE and transferred to HYBOND-ECL membranes. Membranes were immunoblotted with anti-phospho-tyrosine antibodies (Upstate Group Inc.) or anti-MET antibodies.
(§2) For all experiments, densitometry and quantifications were performed using TINA 2.0 program (Raytest, Straubenhardt, Germany).
(§3) For the inhibition of MET, and Src activation, SHEP or GFRα1- and RET/GFRα1-expressing MDCK cells were starved as described above. 1 or […] of the inhibitor PP2 (Calbiochem) was added 30 min before induction by GDNF or HGF. DMSO (dimethyl sulfoxide) was added to the positive controls together with GDNF or HGF.

The test system of test [2] is MET. Nature of the test: MET phosphorylation in MDCK cells (immunoprecipitation, Western blotting). It is filed as cell-based, dog. The procedure:
as §1
Alternatively, 30 μg of protein was incubated overnight at 4° C. with 10 μl Immobilized Phospho-Tyrosine Monoclonal Antibodies (Cell Signalling, NEB). Immunocomplexes were washed and analysed as described.
as §2, §3
A general note: Immunoblotting shows a protein as a band on a membrane.

The test system of test [3] is wild-type MDCK cells. Put plainly: Branching tubule formation assay in 3-D collagen gel. The following applies: 3-D collagen gel. It is filed as cell-based, dog. The protocol:
(§4) From the total amount of cysts in the field, the percentage of cysts with long branches was calculated. Only branches with lengths of more than two cyst diameters were counted.
(§5) Trypsinized cells were mixed 1:3 with collagen type I solution and plated. MEM with 10% FCS was overlaid on the gels with or without GDNF (Cephalon Inc. or R&D Systems, Inc.) or 50 ng/ml HGF. Cells in collagen were cultured for 3 days; GDNF-containing medium was changed daily. For quantification, cells were cultured for 3 days, fixed by 3% glutaraldehyde in PBS and counted under a light microscope.
(§6) To avoid the effect of possible contamination of GDNF preparation, recombinant GDNF from two different sources were tested. One tested GDNF was expressed in baculovirus-infected insect cells (Cephalon Inc.), the other was expressed in mouse myeloma cell line NSO (R&D Systems, Inc.).

For test [4], the target named is MET (Homo sapiens, UniProt P08581). As to conditions: Villa-Moruzzi et al., 1993; cited from earlier work.
MET (Homo sapiens, UniProt P08581), sequence (P08581 25-1390): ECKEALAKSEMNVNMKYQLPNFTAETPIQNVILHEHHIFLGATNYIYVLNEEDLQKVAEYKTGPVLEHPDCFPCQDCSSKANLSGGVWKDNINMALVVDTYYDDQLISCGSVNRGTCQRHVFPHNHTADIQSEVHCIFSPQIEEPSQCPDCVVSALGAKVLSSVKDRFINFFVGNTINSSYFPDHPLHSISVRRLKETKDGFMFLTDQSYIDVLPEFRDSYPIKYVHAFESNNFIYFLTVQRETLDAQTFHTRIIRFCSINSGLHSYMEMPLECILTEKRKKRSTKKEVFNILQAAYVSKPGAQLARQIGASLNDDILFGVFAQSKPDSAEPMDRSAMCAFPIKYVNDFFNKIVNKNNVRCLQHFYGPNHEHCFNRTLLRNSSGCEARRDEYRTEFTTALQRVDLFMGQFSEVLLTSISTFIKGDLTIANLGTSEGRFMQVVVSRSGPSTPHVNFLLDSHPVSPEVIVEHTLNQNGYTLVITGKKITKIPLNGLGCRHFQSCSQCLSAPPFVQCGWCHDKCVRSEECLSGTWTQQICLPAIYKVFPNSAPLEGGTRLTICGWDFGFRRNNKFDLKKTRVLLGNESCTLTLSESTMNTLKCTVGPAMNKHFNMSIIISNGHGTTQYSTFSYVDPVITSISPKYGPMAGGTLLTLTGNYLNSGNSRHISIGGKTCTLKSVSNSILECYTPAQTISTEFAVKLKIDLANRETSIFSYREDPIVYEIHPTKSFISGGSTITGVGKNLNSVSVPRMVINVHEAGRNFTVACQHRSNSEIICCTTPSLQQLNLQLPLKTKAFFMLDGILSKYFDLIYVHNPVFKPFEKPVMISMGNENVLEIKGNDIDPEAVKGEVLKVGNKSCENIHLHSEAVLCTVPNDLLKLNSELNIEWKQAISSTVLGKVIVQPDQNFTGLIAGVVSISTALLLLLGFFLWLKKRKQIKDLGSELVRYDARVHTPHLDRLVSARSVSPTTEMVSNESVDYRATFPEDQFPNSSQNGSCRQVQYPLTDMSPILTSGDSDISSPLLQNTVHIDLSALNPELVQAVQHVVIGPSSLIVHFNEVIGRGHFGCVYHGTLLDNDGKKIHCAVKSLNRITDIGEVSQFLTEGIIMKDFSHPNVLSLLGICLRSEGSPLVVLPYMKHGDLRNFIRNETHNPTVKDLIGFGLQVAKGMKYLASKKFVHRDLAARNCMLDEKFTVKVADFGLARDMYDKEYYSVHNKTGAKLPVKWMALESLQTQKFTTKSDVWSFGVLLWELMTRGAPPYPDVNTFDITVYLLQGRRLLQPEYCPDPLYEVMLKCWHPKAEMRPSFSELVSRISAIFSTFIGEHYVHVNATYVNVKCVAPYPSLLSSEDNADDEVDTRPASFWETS
Test [5] relates to wild-type MDCK cells. As to conditions: Stoker et al., 1987; cited from earlier work.
Test [6] addresses T1, MET (Chlorocebus aethiops, UniProt Q2IBA6).
T1 construct: different combinations of the MET β-subunit (140 kDa), Met-αβ heterodimer (190 kDa) and HGF complexes; endogenous in cells; host or cells: COS7 cells (wild type for 125I-HGF; transfected with pc3-GFRα1/GFP for 125I-GDNF)
Put plainly: 125I-labelled GDNF and HGF binding, chemical crosslinking, anti-MET immunoprecipitation. The protocol: Binding of ^125I-GDNF to COS7 cells transfected with GFRα1, and ^125-HGF to wild-type COS7, followed by cross-linking with EDC together with sulfo-NHS. Inmunoprecipitates with anti-MET antibodies (IP-Met) were analysed by SDS-PAGE under reducing conditions. ^125I-HGF α subunit and proHGF are marked by arrows. ^125I-HGF/MET complexes are denoted by arrow heads. The results are representative of five independent experiments.
GDNF and HGF were enzymatically iodinated with [^125I]NaI (Amersham Pharmacia Biotech) with lactoperoxidase to a specific activity of 100.000 cpm/ng as described (31). COS7 cells were transfected with pc3-GFRα1/GFP two days prior the assay. 2 nM of ^125I-GDNF or 1 nM of ^125I-HGF were allowed to bind to cell monolayers for 1-2 h on ice in binding buffer (DMEM/15 mM HEPES, pH 7.5; 0.2% BSA), washed, and chemically cross-linked for 30 min at room temperature using BS^3 ([Bis(sulfosuccinimidyl)suberate]), DSS ((Disulfosuccinimidyl)suberate), DSP (3,3-Dithio-bis-(sulfosuccinimidyl)propionate) or EDC ((1-Ethyl-3-[3-dimethylaminopropyl]carbodiimide Hydrochloride)) with sulfo-NHS (N-Hydroxysulfosuccinimide) (Pierce). The non-specific binding of GDNF was estimated by the amount of ^125I-GDNF binding to cells in the presence of 300 n M unlabeled GDNF. Cells were washed, lysed and immunoprecipitated with anti-MET antibodies as described. Gels were dried and analyzed by phosphorimaging in a BAS Reader 1800 (Fuji).

Test [7] deals with GFRα1-expressing MDCK cells. Put plainly: Branching tubule formation assay in 3-D collagen gel. The following applies: ligand 100 ng/ml; 3-D collagen gel. It is filed as cell-based, dog. The procedure:
as §4
(§7) FIG. 2C: Dose-dependence of GDNF-induced branching of GFRα1- and RET/GFRα1-expressing MDCK cells. GDNF concentrations are per ml (x-axis). Results are reported as fold of branching cysts count over the non-induced control. Means±standard errors of the mean of five to eight counted fields are shown. The results are representative of five (A and B) and three (C) independent experiments, p<0.001.
as §5, §6

Test [8] concerns RET/GFRα1-expressing MDCK cells. The test is described as above. It is filed as cell-based, dog. The following applies: ligand 100 ng/ml; 3-D collagen gel. The procedure:
as §4, §7, §5, §6

[9] abbreviates: GFRα1- and RET/GFRα1-expressing MDCK cells, data not shown.

T1 sequence (Q2IBA6 25-1381): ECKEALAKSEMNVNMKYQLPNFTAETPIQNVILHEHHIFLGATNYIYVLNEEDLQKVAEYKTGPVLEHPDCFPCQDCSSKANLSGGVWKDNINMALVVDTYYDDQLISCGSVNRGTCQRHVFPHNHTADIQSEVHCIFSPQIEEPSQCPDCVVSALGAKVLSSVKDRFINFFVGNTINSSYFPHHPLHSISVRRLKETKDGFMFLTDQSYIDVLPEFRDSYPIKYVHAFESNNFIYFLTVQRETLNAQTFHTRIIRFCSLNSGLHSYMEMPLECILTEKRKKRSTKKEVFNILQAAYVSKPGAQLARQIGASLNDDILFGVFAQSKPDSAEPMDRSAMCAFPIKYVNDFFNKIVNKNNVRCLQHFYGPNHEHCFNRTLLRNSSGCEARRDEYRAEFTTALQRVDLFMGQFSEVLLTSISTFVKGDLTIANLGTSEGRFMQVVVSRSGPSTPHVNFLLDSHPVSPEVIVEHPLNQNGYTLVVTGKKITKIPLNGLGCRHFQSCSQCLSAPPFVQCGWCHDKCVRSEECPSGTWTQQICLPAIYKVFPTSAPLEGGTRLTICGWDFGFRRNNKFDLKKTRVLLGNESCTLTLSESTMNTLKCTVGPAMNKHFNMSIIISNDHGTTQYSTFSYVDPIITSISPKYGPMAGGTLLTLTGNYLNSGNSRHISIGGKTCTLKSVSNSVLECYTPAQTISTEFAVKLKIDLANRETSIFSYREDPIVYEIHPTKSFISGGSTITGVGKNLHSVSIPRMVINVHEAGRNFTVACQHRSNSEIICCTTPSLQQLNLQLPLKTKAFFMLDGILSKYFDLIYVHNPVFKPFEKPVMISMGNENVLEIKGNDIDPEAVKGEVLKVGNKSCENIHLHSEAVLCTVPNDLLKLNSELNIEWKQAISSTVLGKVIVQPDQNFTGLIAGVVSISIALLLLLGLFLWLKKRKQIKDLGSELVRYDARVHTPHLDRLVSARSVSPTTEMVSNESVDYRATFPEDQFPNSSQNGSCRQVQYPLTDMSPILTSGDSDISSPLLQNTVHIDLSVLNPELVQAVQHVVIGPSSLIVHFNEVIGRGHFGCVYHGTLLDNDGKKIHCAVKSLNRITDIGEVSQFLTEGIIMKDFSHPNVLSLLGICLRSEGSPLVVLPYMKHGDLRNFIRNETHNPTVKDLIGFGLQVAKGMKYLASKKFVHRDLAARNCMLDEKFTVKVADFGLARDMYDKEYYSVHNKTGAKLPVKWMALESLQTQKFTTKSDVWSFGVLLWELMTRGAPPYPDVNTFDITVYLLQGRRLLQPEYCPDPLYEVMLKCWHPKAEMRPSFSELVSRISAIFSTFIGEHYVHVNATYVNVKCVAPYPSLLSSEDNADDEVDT

Regarding `CC(C)(C)n1nc(-c2ccc(Cl)cc2)c2c(N)ncnc21` [PP2, reference compound], the “effect on GDNF-dependent phosphorylation of MET” value in the test on MET [1] (PP2 1 μM) is “strongly reduced”. Moreover, the “effect on HGF-induced MET phosphorylation” value in the test with MET [1] is recorded as “did not affect”. Besides, in the test with MET [2] (setting [9]), the “effect on GDNF-induced MET activation” value is “inhibited” and the “effect on HGF-induced MET phosphorylation” value is “but not the HGF-induced MET phosphorylation”.

Regarding “HGF: hepatocyte growth factor (Sigma); binds to and activates MET receptor tyrosine kinase”, the MET phosphorylation entry in the test on MET [2] (mock-transfected MDCK cells) is “only HGF phosphorylated MET”. Besides, in the test with wild-type MDCK cells [3] (HGF 50 ng/ml), the branching tubule formation entry is listed as “only branch on exposure to HGF”. Further, the “concentration at which MET is saturated” value in the test with MET [4] was 0.5 nM. Also, in the test with wild-type MDCK cells [5], the chemotaxis entry is “induces chemotaxis”.

In the case of “^125I-HGF: HGF enzymatically iodinated with [125I]NaI with lactoperoxidase [reference compound]”, the “cross-linked complexes with MET” value with MET [6] (COS7 cells, reducing conditions, positive control) is “approximately 200 kDa, 250 kDa and 340 kDa complexes”.

B1: PSPN: persephin, the ligand for GFRα4, not known to interact with GFRα1 (protein, UniProt O60542 22-156, looked up)
Persephin: WGPDARGVPVADGEFSSEQVAKAGGTWLGTHRPLARLRRALSGPCQLWSLTLSVAELGLGYASEEKVIFRYCAGSCPRGARTQHGLALARLQGQGRAHGGPCCRPTRYTDVAFLDDRHRWQRLPQLSAAACGCGG
As to B1, the branching tubule formation entry with wild-type MDCK cells [3] (ligand 100 ng/ml) is recorded as “does not induce branching”; in test [7] it was “did not evoke branching”; in test [8], “did not evoke branching”.

B2: ^125I-GDNF: GDNF enzymatically iodinated with [125I]NaI with lactoperoxidase (protein, UniProt P39905 78-211, looked up)
Glial cell line-derived …: SPDKQMAVLPRRERNRQAAAANPENSRGKGRRGQRGKNRGCVLTAIHLNVTDLGLGYETKEELIFRYCSGSCDAAETTYDKILKNLSRNRRLVSDKVGQACCRPIAFDDDLSFLDDNLVYHILRKHSAKRCGCI
modifications: 125I label
notes: GDNF enzymatically iodinated with [125I]NaI with lactoperoxidase
As for B2, the “cross-linked complexes with MET” value with MET [6] (GFRα1-expressing MDCK, SHEP or COS7 cells, and NIH 3T3 cells transiently transfected with GFRα1, EDC with sulfo-NHS, BS3, DSS, DSP) was “No high molecular weight complexes were revealed”.

Source of the values: patent US20080070264A1, “Intracellular Signaling-Induced Ret-Independent Gdnf Receptor-Effected Morphological Changes” (JPMORGAN CHASE BANK N.A., priority 2003, published 2008).
